How the values were obtained:
human HPK1 (MAP4K1) = target: T1, human HPK1 (MAP4K1) (Homo sapiens, UniProt Q92918); assay: HPK1 inhibition assay (indirect ELISA); assay type: biochemical; settings: GST-HPK1 0.6 nM, 12 μM ATP; read-out: IC50 Range HPK1
T1 construct: human HPK1 (aa 1-346); purchased Invitrogen PV6355
T1 sequence (Q92918 1-346): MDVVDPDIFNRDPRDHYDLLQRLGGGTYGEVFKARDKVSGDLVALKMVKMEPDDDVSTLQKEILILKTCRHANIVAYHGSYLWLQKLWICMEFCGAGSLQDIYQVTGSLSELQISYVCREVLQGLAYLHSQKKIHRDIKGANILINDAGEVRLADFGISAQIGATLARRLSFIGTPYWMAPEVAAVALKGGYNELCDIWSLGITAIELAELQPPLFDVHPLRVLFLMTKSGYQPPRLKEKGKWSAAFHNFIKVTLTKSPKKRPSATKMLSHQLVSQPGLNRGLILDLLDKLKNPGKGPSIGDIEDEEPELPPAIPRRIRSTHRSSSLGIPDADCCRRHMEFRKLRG
Experimental: Active HPK1 (MAP4K1) was purchased as an N-terminal GST fusion of human HPK1 (aa 1-346) from Invitrogen (cat #PV6355). HPK1 activity was measured using an indirect ELISA detection system. GST-HPK1 (0.6 nM) was incubated in the presence of 12 μM ATP (Sigma cat #A7699), 5 mM MOPS (pH 7.2), 2.5 mM β-glycerol-phosphate, 5 mM MgCl2, 0.4 mM EDTA, 1 mM EGTA, 0.05 mM DTT, in a 96 well microtitre plate pre-coated with 0.5 μg/well bovine myelin basic protein (MBP) (Millipore, cat #13-110). The reaction was allowed to proceed for 30 min, followed by 5 washes of the plate with Wash Buffer (phosphate buffered saline supplemented with 0.2% Tween 20), and incubation for 30 min with a 1:3000 dilution of anti-phospho-threonine rabbit polyclonal antibody (Cell Signaling cat #9381). The plate was washed 5 times with wash buffer, incubated for 30 min in the presence of goat anti-rabbit horse radish peroxidase conjugate (BioRad cat #1721019, 1:3000 concentration), washed an additional 5 times with wash buffer, and incubated in the presence of TMB substrate (Sigma cat #T0440). The colorimetric reaction was allowed to continue for 5 min, followed by addition of stop solution (0.5 N H2SO4), and quantified by detection at 450 nm with a monochromatic plate reader (Molecular Devices M5).
Compound inhibition was determined at either a fixed concentration (10 μM) or at a variable inhibitor concentration (typically 50 μM to 0.1 μM in a 10 point dose response titration). Compounds were pre-incubated in the presence of enzyme for 15 min prior to addition of ATP and the activity remaining quantified using the above described activity assay. The % inhibition of a compound was determined using the following formula; % inhibition=100×(1−(experimental value−background value)/(high activity control−background value)). The IC50 value was determined using a non-linear 4 point logistic curve fit (XLfit4, IDBS) with the formula; (A+(B/(1+((x/C)^D)))), where A=background value, B=range, C=inflection point, D=curve fit parameter.

LCK = target: T2, LCK (Homo sapiens, UniProt P06239); assay: LCK inhibition, FRET based Z'-LYTE Kinase Assay; assay type: biochemical; settings: 25 nM LCK, 180 μM ATP; read-out: IC50 Range Lck
T2 construct: purchased Invitrogen P3043
T2 sequence (P06239 whole entry, species assumed): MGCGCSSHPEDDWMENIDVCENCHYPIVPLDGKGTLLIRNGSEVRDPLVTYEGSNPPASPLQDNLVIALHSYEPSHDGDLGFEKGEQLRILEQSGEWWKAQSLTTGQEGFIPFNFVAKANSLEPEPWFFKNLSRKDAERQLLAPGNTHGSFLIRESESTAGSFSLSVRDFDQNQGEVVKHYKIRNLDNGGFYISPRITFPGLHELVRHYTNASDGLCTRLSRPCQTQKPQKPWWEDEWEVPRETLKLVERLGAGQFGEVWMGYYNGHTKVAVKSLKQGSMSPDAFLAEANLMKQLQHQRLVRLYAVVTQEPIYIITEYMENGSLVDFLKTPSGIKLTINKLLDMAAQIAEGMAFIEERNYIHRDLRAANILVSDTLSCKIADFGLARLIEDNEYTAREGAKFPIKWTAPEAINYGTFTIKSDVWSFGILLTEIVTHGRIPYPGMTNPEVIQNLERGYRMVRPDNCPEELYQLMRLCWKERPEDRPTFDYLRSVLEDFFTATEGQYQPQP
Experimental: FLT3 and LCK compound inhibition were determined using FRET based Z′-LYTE Kinase Assay Kit with Tyrosine 2 peptide as the substrate (Invitrogen cat #PV3191). […] The % inhibition values were determined according to the manufacturer's directions and IC50 values were obtained using a non-linear 4 point logistic curve fit (XLfit4, IDBS).

Row | SMILES | IC50 (human HPK1 (MAP4K1)) | IC50 (LCK)
1 | Cc1cc2c(N)c(-c3nc4ccc(N5CCN(C)CC5)cc4[nH]3)c(=O)[nH]c2s1 [Example A3, 4-amino-2-methyl-5-(6-(4-methylpiperazin-1-yl)-1H-benzo[d]imidazol-2-yl)thieno[2,3-b]pyridin-6(7H)-one] | > 500 nM | –
2 | COc1csc2[nH]c(=O)c(-c3nc4ccc(N5CCN(C)CC5)cc4[nH]3)c(N)c12 [Example A5, 4-amino-3-methoxy-5-(6-(4-methylpiperazin-1-yl)-1H-benzo[d]imidazol-2-yl)thieno[2,3-b]pyridin-6(7H)-one] | > 500 nM | > 500 nM
3 | CCOc1csc2[nH]c(=O)c(-c3nc4ccc(N5CCN(C)CC5)cc4[nH]3)c(N)c12 [Example A6, 4-amino-3-ethoxy-5-(6-(4-methylpiperazin-1-yl)-1H-benzo[d]imidazol-2-yl)thieno[2,3-b]pyridin-6(7H)-one] | 50 to 500 nM | –
4 | CN1CCN(c2ccc3nc(-c4c(N[C@H]5CCOC5)c5ccsc5[nH]c4=O)[nH]c3c2)CC1 [Example A11, (S)-5-(6-(4-methylpiperazin-1-yl)-1H-benzo[d]imidazol-2-yl)-4-((tetrahydrofuran-3-yl)amino)thieno[2,3-b]pyridin-6(7H)-one] | ≤ 50 nM | –
5 | CN1CCN(c2ccc3nc(-c4c(N[C@H]5C[C@@H](O)C5)c5ccsc5[nH]c4=O)[nH]c3c2)CC1 [Example A12, 4-(((1s,3s)-3-hydroxycyclobutyl)amino)-5-(6-(4-methylpiperazin-1-yl)-1H-benzo[d]imidazol-2-yl)thieno[2,3-b]pyridin-6(7H)-one] | ≤ 50 nM | –
6 | CC(C)[C@H](CO)Nc1c(-c2nc3ccc(N4CCN(C)CC4)cc3[nH]2)c(=O)[nH]c2sccc12 [Example A16, (R)-4-((1-hydroxy-3-methylbutan-2-yl)amino)-5-(6-(4-methylpiperazin-1-yl)-1H-benzo[d]imidazol-2-yl)thieno[2,3-b]pyridin-6(7H)-one] | ≤ 50 nM | –
7 | Cc1csc2[nH]c(=O)c(-c3nc4ccc(N5CCN(C)CC5)cc4[nH]3)c(NC3CCCC3)c12 [Example A19, 4-(cyclopentylamino)-3-methyl-5-(6-(4-methylpiperazin-1-yl)-1H-benzo[d]imidazol-2-yl)thieno[2,3-b]pyridin-6(7H)-one] | 50 to 500 nM | –
8 | Cc1csc2[nH]c(=O)c(-c3nc4ccc(N5CCN(C)CC5)cc4[nH]3)c(NC3CCOCC3)c12 [Example A20, 3-methyl-5-(6-(4-methylpiperazin-1-yl)-1H-benzo[d]imidazol-2-yl)-4-((tetrahydro-2H-pyran-4-yl)amino)thieno[2,3-b]pyridin-6(7H)-one] | > 500 nM | –
9 | CN1CCN(c2ccc3nc(-c4c(NC5CCOCC5)c5cscc5[nH]c4=O)[nH]c3c2)CC1 [Example A25, 3-(6-(4-methylpiperazin-1-yl)-1H-benzo[d]imidazol-2-yl)-4-((tetrahydro-2H-pyran-4-yl)amino)thieno[3,4-b]pyridin-2(1H)-one] | ≤ 50 nM | –
10 | CN1CCN(c2ccc3nc(-c4c(NCCN5CCOCC5)c5cscc5[nH]c4=O)[nH]c3c2)CC1 [Example A26, 3-(6-(4-methylpiperazin-1-yl)-1H-benzo[d]imidazol-2-yl)-4-((2-morpholinoethyl)amino) thieno[3,4-b]pyridin-2(1H)-one] | ≤ 50 nM | –
11 | CN1CCN(c2ccc3nc(-c4c(NCc5ccccn5)c5cscc5[nH]c4=O)[nH]c3c2)CC1 [Example A28, 3-(6-(4-methylpiperazin-1-yl)-1H-benzo[d]imidazol-2-yl)-4-((pyridin-2-ylmethyl)amino)thieno[3,4-b]pyridin-2(1H)-one] | ≤ 50 nM | –
12 | CN1CCN(c2ccc3nc(-c4c(O)c5sccc5[nH]c4=O)[nH]c3c2)CC1 [Example A29, 7-hydroxy-6-(6-(4-methylpiperazin-1-yl)-1H-benzo[d]imidazol-2-yl)thieno[3,2-b]pyridin-5(4H)-one] | ≤ 50 nM | 50 to 500 nM
13 | Cc1cc2[nH]c(=O)c(-c3nc4ccc(N5CCN(C)CC5)cc4[nH]3)c(N)c2s1 [Example A32, 7-amino-2-methyl-6-(6-(4-methylpiperazin-1-yl)-1H-benzo[d]imidazol-2-yl)thieno[3,2-b]pyridin-5(4H)-one] | > 500 nM | ≤ 50 nM
14 | C[C@@H]1CN(c2ccc3nc(-c4c(NC5CCCC5)c5sccc5[nH]c4=O)[nH]c3c2)C[C@H](C)N1C [Example A47, 7-(cyclopentylamino)-6-(6-(3r,5s)-rel-3,4,5-trimethylpiper-azin-1-yl)-1H-benzo[d]imidazol-2-yl)thieno[3,2-b]pyridin-5(4H)-one] | ≤ 50 nM | –
15 | CN1CCN(c2ccc3nc(-c4c(N5CCOCC5)c5sccc5[nH]c4=O)[nH]c3c2)CC1 [Example A49, 6-(6-(4-methylpiperazin-1-yl)-1H-benzo[d]imidazol-2-yl)-7-morpholinothieno[3,2-b]pyridin-5(4H)-one] | > 500 nM | –
16 | CN1CCN(c2ccc3nc(-c4c(N5CCC(O)CC5)c5sccc5[nH]c4=O)[nH]c3c2)CC1 [Example A50, 7-(4-hydroxypiperidin-1-yl)-6-(6-(4-methylpiperazin-1-yl)-1H-benzo[d]imidazol-2-yl)thieno[3,2-b]pyridin-5(4H)-one] | > 500 nM | > 500 nM
17 | Nc1c(-c2nc3cc(F)c(N4CCOCC4)cc3[nH]2)c(=O)[nH]c2sccc12 [Example A56, 4-amino-5-(5-fluoro-6-morpholino-1H-benzo[d]-imidazol-2-yl)-thieno-[2,3b]-pyridin-6(7H)-one] | ≤ 50 nM | –
18 | CN1CCN(C(=O)c2ccc3[nH]c(-c4c(N)c5ccsc5[nH]c4=O)nc3c2)CC1 [Example A60, 4-amino-5-(5-(4-methylpiperazine-1-carbonyl)-1H-benzo[d]imidazol-2-yl)thieno[2,3-b]-pyridin-6(7H)-one] | 50 to 500 nM | 50 to 500 nM
19 | Nc1c(-c2nc3cc(C(=O)N4CCOCC4)ccc3[nH]2)c(=O)[nH]c2sccc12 [Example A62, 4-amino-5-(5-(morpho-line-4-carbonyl)-1H-benzo-[d]imidazol-2-yl)thieno[2,3-b]pyridin-6(7H)-one] | 50 to 500 nM | –
20 | CN1CCN(c2ccc3nc(-c4c(NC5CC5)c5sccc5[nH]c4=O)[nH]c3c2)CC1 [Example A63, 7-(cyclopropylamino)-6-(6-(4-methylpiperazin-1-yl)-1H-benzo[d]imidazol-2-yl)thieno[3,2-b]-pyridin-5(4H)-one 2,2,2-trifluroaceatate] | ≤ 50 nM | –
21 | C[C@@H]1CN(c2ccc3nc(-c4c(N[C@H]5CCCC[C@H]5O)c5ccsc5[nH]c4=O)[nH]c3c2)C[C@H](C)O1 [Example A73] | 50 to 500 nM | –
22 | COCCNc1c(-c2nc3ccc(N4CCN(C)CC4)cc3[nH]2)c(=O)[nH]c2sccc12 [Example A74, 4-((2-methoxyethyl)amino)-5-(6-(4-methylpiperazin-1-yl)-1H-benzo[d]imidazol-2-yl)thieno[2,3-b]pyridin-6(7H)-one] | ≤ 50 nM | –
23 | CN1CCN(c2ccc3nc(-c4c(N[C@@H]5CCC[C@H]5O)c5cscc5[nH]c4=O)[nH]c3c2)CC1 [Example A75, 4-(((1R,2R)-2-hydroxycyclopentyl)amino)-3-(6-(4-methylpiperazin-1-yl)-1H-benzo[d]imidazol-2-yl)thieno[3,4-b]pyridin-2(1H)-one] | ≤ 50 nM | –
24 | C[C@@H]1CN(c2ccc3nc(-c4c(N)c5ccsc5[nH]c4=O)[nH]c3c2)C[C@H](C)O1 [Example A76, 4-amino-5-(6-((2S,6R)-2,6-dimethylmorpholino)-1H-benzo[d]imidazol-2-yl)thieno[2,3-b]pyridin-6(7H)-one] | ≤ 50 nM | –
25 | CN1CCN(c2ccc3nc(-c4c(N[C@@H]5CCCOC5)c5ccsc5[nH]c4=O)[nH]c3c2)CC1 [Example A77, (R)-5-(6-(4-methylpiperazin-1-yl)-1H-benzo[d]imidazol-2-yl)-4-((tetrahydro-2H-pyran-3-yl)amino)thieno[2,3-b]pyridin-6(7H)-one] | ≤ 50 nM | –
